In ChEMBL document CHEMBL1132118, “Structure-based design, synthesis, and biological evaluation of irreversible human rhinovirus 3C protease inhibitors. 3. Structure-activity studies of ketomethylene-containing peptidomimetics” (J Med Chem, 1999):

How the values were obtained:
Format in all cases: functional
[1] = molecular target: T1, Human rhinovirus A protease (Human rhinovirus sp.) (UniProt Q4U254); assay: The EC90 was calculated as the concentration of drug that increased the percentage of formazan production in drug treated, virus infected cells to 50% of that produced by drug free uninfected cells on human rhinovirus-10.
T1 sequence (whole entry): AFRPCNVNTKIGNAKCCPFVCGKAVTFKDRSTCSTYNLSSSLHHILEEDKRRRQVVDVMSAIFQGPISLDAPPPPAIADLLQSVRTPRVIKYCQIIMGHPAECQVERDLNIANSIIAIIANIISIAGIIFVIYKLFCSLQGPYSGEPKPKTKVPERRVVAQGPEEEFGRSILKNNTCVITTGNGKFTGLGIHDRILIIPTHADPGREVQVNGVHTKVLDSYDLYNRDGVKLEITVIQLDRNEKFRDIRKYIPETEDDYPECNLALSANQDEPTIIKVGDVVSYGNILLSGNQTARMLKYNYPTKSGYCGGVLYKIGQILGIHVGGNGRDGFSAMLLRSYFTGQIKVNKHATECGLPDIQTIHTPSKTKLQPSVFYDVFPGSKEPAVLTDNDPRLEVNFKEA

[2] = molecular target: T1, Human rhinovirus A protease (Human rhinovirus sp.); assay: The EC90 was calculated as the concentration of drug that increased the percentage of formazan production in drug treated, virus infected cells to 50% of that produced by drug free uninfected cells on human rhinovirus-14.
[3] = molecular target: T1, Human rhinovirus A protease (Human rhinovirus sp.); assay: The EC90 was calculated as the concentration of drug that increased the percentage of formazan production in drug treated, virus infected cells to 50% of that produced by drug free uninfected cells on human rhinovirus-1A.
[4] = molecular target: T1, Human rhinovirus A protease (Human rhinovirus sp.); assay: The EC90 was calculated as the concentration of drug that increased the percentage of formazan production in drug treated, virus infected cells to 50% of that produced by drug free uninfected cells on human rhinovirus-2.
[5] = The 50% cytotoxic concentration was calculated as the concentration of the drug that decreased the percentage of formazan produced in drug-treated,uninfected cells to 50% of that produced in drug free uninfected cells on serotype 14.

Structure (SMILES)	CC50 [5] [nM]	other results
CCOC(=O)/C=C/[C@H](CCC(N)=O)NC(=O)[C@@H](CC(=O)[C@@H](NC(=O)SC1CCCC1)C(C)C)Cc1ccc(F)cc1	> 100000	EC90 [1]: 250 nM; EC90 [2]: 100 nM; EC90 [3]: 200 nM; EC90 [4]: 250 nM
CCOC(=O)/C=C/[C@H](CCC(N)=O)NC(=O)[C@@H](CC(=O)[C@H](CC(C)C)NC(=O)SC1CCCC1)Cc1ccc(F)cc1	> 100000	–
CCOC(=O)/C=C/[C@H](CCC(N)=O)NC(=O)[C@@H](CC(=O)[C@@H](NC(=O)c1cc(C)on1)C(C)C)Cc1ccc(F)cc1	–	EC90 [1]: 790 nM; EC90 [2]: 320 nM
CCOC(=O)/C=C/[C@H](CCC(N)=O)NC(=O)[C@@H](CC(=O)[C@@H](NC(=O)SCc1ccccc1)C(C)C)Cc1ccccc1	> 100000	–
CCOC(=O)/C=C/[C@H](CCC(N)=O)NC(=O)[C@@H](CC(=O)[C@H](CC(C)C)NC(=O)SCc1ccccc1)Cc1ccccc1	> 100000	–
CCOC(=O)/C=C/[C@H](CCC(N)=O)NC(=O)[C@@H](CC(=O)[C@@H](NC(=O)SC1CCCC1)C(C)(C)C)Cc1ccccc1	> 100000	–
CCOC(=O)/C=C/[C@H](CCC(N)=O)NC(=O)[C@H](Cc1ccccc1)NC(=O)[C@H](CC(C)C)NC(=O)OCc1ccccc1	> 320000	–
CCOC(=O)/C=C/[C@H](CCC(N)=O)NC(=O)[C@@H](CC(=O)[C@H](CC(C)C)NC(=O)SC1CCCC1)Cc1ccccc1	> 100000	–
CCOC(=O)/C=C/[C@H](CCC(N)=O)NC(=O)[C@@H](CC(=O)[C@@H](NC(=O)SC1CCCC1)C(C)C)Cc1ccc(C(F)(F)F)cc1	> 100000	–
CCOC(=O)/C=C/[C@H](CCC(N)=O)NC(=O)[C@@H](CC(=O)[C@H](CC(C)C)NC(=O)OCc1ccccc1)Cc1ccccc1	> 320000	–
CCOC(=O)/C=C/[C@H](CCC(N)=O)NC(=O)[C@@H](CC(=O)[C@H](Cc1ccccc1)NC(=O)SC1CCCC1)Cc1ccc(F)cc1	> 100000	–
CCOC(=O)/C=C/[C@H](CCC(N)=O)NC(=O)[C@@H](CC(=O)[C@H](Cc1ccccc1)NC(=O)SC1CCCC1)Cc1ccc(C)cc1	> 100000	–
CCOC(=O)/C=C/[C@H](CCC(N)=O)NC(=O)[C@@H](CC(=O)[C@@H](NC(=O)SC1CCCC1)C(C)C)Cc1ccc(C)cc1	> 100000	–
CCOC(=O)/C=C/[C@H](CCC(N)=O)NC(=O)[C@@H](CC(=O)[C@@H](NC(=O)SC1CCCC1)C(C)C)Cc1ccccc1	> 100000	–
CCOC(=O)/C=C/[C@H](CCC(N)=O)NC(=O)[C@H](Cc1ccc(F)cc1)NC(=O)[C@@H](NC(=O)SC1CCCC1)C(C)C	–	EC90 [1]: 2500 nM; EC90 [2]: 1800 nM; EC90 [3]: 2500 nM; EC90 [4]: 5400 nM
CCOC(=O)/C=C/[C@H](CCC(N)=O)NC(=O)[C@@H](CC(=O)[C@H](CC(C)C)NC(=O)SC1CCCC1)Cc1ccc(C)cc1	> 100000	–
